Square brackets hold non-standard residues; d marks the D form. Peptide text beside a SMILES is read from it. * marks the point of attachment. Ala(1H-tetrazol-5-yl) = N[C@@H](Cc1nnn[nH]1)C(=O)O; Ms = CS(=O)(=O)*
Tests used:
[1] = Peptide stability test, Tris buffer (pH 7.0), 60° C. storage, HPLC remaining rate; assay type: physicochemical; settings: 100 μM in Tris buffer pH 7.0
Summary of the method: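 Peptides at 100 μM in Tris buffer (pH 7.0) stored 1 or 2 weeks at 60° C.; unstored sample kept at −30° C. as initial reference. Remaining peptide quantified by reversed-phase HPLC at 220 nm (formic acid/acetonitrile gradient, 40° C. column), as water-corrected remaining rate.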

[2] = system: rat trigeminal nerve cells; test: Axon elongation effect on cultured rat trigeminal nerve cells; assay type: cell-based; settings: 1 μM peptide, 24 hours; N=8; Dunnett's test vs control P<0.001; FIG. 5
Description: Rats (Sic: Sprague-Dawley, 17-day-old, including female and male) purchased from Japan SLC, Inc. were euthanized by carbon dioxide gas inhalation and the trigeminal ganglion was harvested. The harvested trigeminal ganglion was washed with Hanks' balanced salt solution (HBSS) and then treated with collagenase A (Roche) for 30 minutes at 37° C. A neuron dispersion (Wako) was then used according to protocol for dispersion of the cells. Debris removal solution (Miltenyi biotec) and Myelin removal beads II (Miltenyi biotec) were used according to protocol to remove the debris and myelin. After suspending the isolated trigeminal nerve cells in culture solution, they were seeded onto a polylysine/laminin-coated 8-well chamber slide (Corning) at 2.5×10^3 cells/well. The culture solution used was Neurobasal-A containing B27 supplement (final concentration: 2%) and GlutaMAX (final concentration: 2 mM) and penicillin/streptomycin (final concentration: 1%). The culturing conditions were a carbon dioxide concentration of 5%, an air concentration of 95%, a humidity of 100% and a temperature of 37° C. […] The control was replaced with peptide-free culture solution. Culture medium replacement was followed by further culturing for 24 hours.
The culture medium was replaced with peptide-containing culture solution, and the rat trigeminal nerve cells cultured for 24 hours were immersed in a 2% paraformaldehyde solution at room temperature for 20 minutes for fixing. The cells were washed with PBS, and then 2% bovine serum albumin containing 0.1% TritonX-100 was added and reaction was conducted for 30 minutes. After washing with PBS, it was reacted with phospho-neurofilament H antibody (Merck, MAB1592-C) specifically recognizing neurofilaments forming the neuron bodies and neurites, for 1 hour at room temperature. After reaction for 1 hour, a fluorescent-labeled secondary antibody (Invitrogen Corp., #A-11031) was reacted at room temperature for 1 hour for fluorescent staining of the sample, and the stained cells were observed under a fluorescent microscope. The stained cell image was captured as an image from the fluorescent microscope and loaded into a computer.
In order to evaluate the extent of neurite formation by the rat trigeminal nerve cells, cells with neurites having lengths of at least twice the cell body diameter in the stained cell image in the computer were counted as neurite-forming cells, and the percentage (%) of this number of cells over the total cell count was calculated (Otori Y. Wei J Y, Barnstable C J. Invest. Ophthalmol Vis Sci (1998) 39, 972-981). The significant difference with respect to the control was determined by Dunnett's test (P<0.001).

remaining rate after correction for water, 60° C., 1 week preservation ([1]; Table 7) | remaining rate after correction for water, 60° C., 2 weeks preservation ([1]; Table 7) | remaining rate after correction for water, 60° C., 2 weeks preservation ([1]; Table 7-2) | Structure (SMILES) | axon elongation (percentage of neurite-forming cells) [2]
97.0% | 93.6% |  | CC[C@H](C)[C@H](NC(=O)CNC(=O)[C@H](Cc1nnn[nH]1)NC(=O)[C@H](CO)NC(=O)[C@H](Cc1c[nH]cn1)NS(C)(=O)=O)C(=O)N[C@@H](Cc1ccccc1)C(=O)N[C@H](C(=O)N[C@@H](Cc1nnn[nH]1)C(=O)N[C@@H](CO)C(=O)N[C@@H](Cc1ccc(O)cc1)C(=O)N[C@@H](CO)C(=O)N[C@@H](CCCNC(=N)N)C(=O)N[C@@H](Cc1ccc(O)cc1)C(=O)N[C@@H](CCCNC(=N)N)C(=O)N[C@@H](CCCCN)C(=O)N[C@@H](CCC(N)=O)C(=O)N[C@@H](CC(C)C)C(=O)N[C@@H](C)C(=O)N[C@H](C(=O)N[C@@H](CCCCN)C(=O)N[C@@H](CCCCN)C(=O)N[C@@H](Cc1ccc(O)cc1)C(=O)N[C@@H](CC(C)C)C(=O)N[C@@H](C)C(=O)N[C@@H](C)C(=O)N[C@H](C(=O)N[C@@H](CC(C)C)C(N)=O)C(C)C)C(C)C)[C@@H](C)O [Peptide 12] (Ms-HS[Ala(1H-tetrazol-5-yl)]GIFT[Ala(1H-tetrazol-5-yl)]SYSRYRKQLAVKKYLAAVL-NH2) | exhibited axon elongation-promoting effects
 |  | 90.1% | CC[C@H](C)[C@H](NC(=O)[C@H](C)NC(=O)[C@H](Cc1nnn[nH]1)NC(=O)[C@H](CO)NC(=O)[C@H](Cc1c[nH]cn1)NS(C)(=O)=O)C(=O)N[C@@H](Cc1ccccc1)C(=O)N[C@H](C(=O)N[C@@H](Cc1nnn[nH]1)C(=O)N[C@@H](CO)C(=O)N[C@@H](Cc1ccc(O)cc1)C(=O)N[C@@H](CO)C(=O)N[C@@H](CCCNC(=N)N)C(=O)N[C@@H](Cc1ccc(O)cc1)C(=O)N[C@@H](CCCNC(=N)N)C(=O)N[C@@H](CCCCN)C(=O)N[C@@H](CCC(N)=O)C(=O)N[C@@H](C)C(=O)N[C@@H](C)C(=O)N[C@H](C(=O)N[C@@H](CCCCN)C(=O)N[C@@H](CCCCN)C(=O)N[C@@H](Cc1ccc(O)cc1)C(=O)N[C@@H](CC(C)C)C(=O)N[C@@H](C)C(=O)N[C@@H](C)C(=O)N[C@H](C(=O)N[C@@H](CC(C)C)C(N)=O)C(C)C)C(C)C)[C@@H](C)O [Peptide 31] (Ms-HS[Ala(1H-tetrazol-5-yl)]AIFT[Ala(1H-tetrazol-5-yl)]SYSRYRKQAAVKKYLAAVL-NH2) | exhibited axon elongation-promoting effects

Reference: US20220202905A1, “COMPOSITION FOR PREVENTING OR TREATING NEUROTROPHIC KERATITIS WHICH CONTAINS PACAP PEPTIDE OR STABILIZED PACAP PEPTIDE” (SENJU PHARMACEUTICAL CO., LTD., priority 2019, published 2022)
